# Values quoted from earlier work, collected in patent publication US11925179B2, “Glyphosate formulations containing amidoalkylamine surfactants” (Monsanto Technology LLC, priority 2008, dated 2024).
# Details: glyphosate in its acid form, 25° C.
compound,measurement,value
"O=C(O)CNCP(=O)(O)O [glyphosate, N-phosphonomethylglycine]",solubility in water,1.16 % by weight
